Test results as given in patent US10036741B2, “Systems, models and methods for identifying and evaluating skin-active agents effective for treating an array of skin disorders” (The Procter & Gamble Company, priority 2012, dated 2018).

How the values were obtained:
[1] = system: unhealthy skin gene expression signature; experiment: Connectivity mapping (C-map) query of stored skin instances with the unhealthy skin gene expression signature; assay type: cell-based, human; conditions: text statement on highest-ranked results of Table C
Text: Referring to FIG. 6 and FIG. 7, an exemplary method for querying instances with one or more gene expression signatures will now be described. Broadly, the method comprises querying a data architecture of stored instances (e.g., skin instances) with one or more gene signatures (e.g., an unhealthy skin gene expression signature), and applying a statistical method to determine how strongly the gene expression signature genes match the regulated genes in an instance.
The up-score and down-score have, for example, values between +1 and −1. […] In these embodiments, the gene expression signature comprises the combination of the up list and the down list. […]
The combination of the up-score and down-score is used to calculate an overall connectivity score for each instance, and in embodiments where up- and down-score ranges are set between −1 and +1, the connectivity score ranges from −2 to +2, and represents the strength of match between a query gene expression signature and the instance. The sign of the overall score is determined by whether the instance links positivity or negatively to the signature. […]

dandruff = experiment: Effect of ZPT-containing shampoo on the unhealthy skin gene expression signature in dandruff sufferers (Study 2); assay type: in vivo, human; conditions: dandruff subjects, scalp biopsies, three weeks of treatment
Description: Hierarchical Cluster Analysis of Dandruff vs. Non-Dandruff (Study 1): Genome-wide transcriptional profiles of the dandruff condition and healthy scalp were assessed using RNA extracted from full thickness scalp biopsies. […] Each row in FIG. 9 represents a single probe set and each column represents the group average of all subjects (not a single microarray experiment).
Effect of zinc pyrithione (ZPT) on the Unhealthy Skin Gene Expression Signature in Dandruff Sufferers (Study 2): We examined the effect of ZPT on the transcriptomic profile in dandruff sufferers during a course of treatment known to resolve the key symptoms of the condition (flake and itch) and substantially restore the scalp skin histology and cell surface biomarker profile to a healthy state. In this study, we were able to replicate our key transcriptomic findings from Study 1 in a second study population. It is notable that using the expression levels of the same 400 probe sets in the unhealthy gene expression signature, which all satisfied the p<0.05 criterion, hierarchical cluster analysis again clearly separated Dandruff from Non-dandruff (see All Dandruff Baseline vs. Non-Dandruff Baseline). […] This underscores the fundamental importance of the gene products associated with this signature to skin homeostasis.

Row | Molecule | rank of instances in C-map query (linkage score) [1] | gene expression profile (400 probe sets of unhealthy skin signature), hierarchical cluster analysis (dandruff)
1 | CC1=C(/C=C/C(C)=C/C=C/C(C)=C/C(=O)O)C(C)(C)CCC1 [All-trans retinoic acid] | strongest negative linkage scores | 
2 | NC(=O)c1cccnc1 [Nicotinamide] | strongest negative linkage scores | 
3 | zinc pyrithione [zinc pyriothione] |  | reversal of the unhealthy skin gene expression signature
